Source: US20180256673A1, “METHODS FOR TREATING FUNGAL INFECTIONS” (priority 2015, published 2018)
≈ marks a conversion by molar mass, not a printed value. Where “and” joins values, the source holds several entries; their conditions need not be identical. Identical values can stand only once. Like-named read-outs stand apart in the source and are kept apart here. Starred links: 1 amine or outer side, 2 acyl side, 3 side chain; linkers in the order of their positions; H or OH if unused. Positions of bridges follow the written chain, without caps; N, C: chain ends. Non-standard residues stand in square brackets, D forms with d. Residues, ends and D or L forms follow the SMILES beside them. *: point of attachment. pTerphenylCO(4''-OnC5H11) = CCCCCOc1ccc(-c2ccc(-c3ccc(C(=O)*)cc3)cc2)cc1; Orn(4R-OH,5R-OH) = O=C([C@H](C[C@@H](O)[C@@H](O)N[*:3])N[*:1])[*:2]; hTyr(3S-OH,4S-OH) = N[C@H](C(=O)O)[C@H](O)[C@@H](O)c1ccc(O)cc1; Pro(3S-OH,4S-Me) = C[C@H]1CN[C@H](C(=O)O)[C@H]1O; Hyp = O=C(O)[C@@H]1C[C@@H](O)CN1

Tests used:
Aspergillus fumigatus = assay: Broth microdilution of invasive fungal isolates (CLSI M27-A3/M38-A2), MEC; format: cell-based; conditions: 56 isolates
C. parapsilosis CP02 [1] = format: cell-based, Candida parapsilosis
Experimental: (§1) Spontaneous mutant selection. […] Three individual colonies from each strain were used to start cultures in RPMI. […] One milliliter aliquots were spread onto SDA plates containing drug with sterile glass beads. Starting viable count was enumerated by triplicate plating of serial dilutions of the starting inoculum. […] Glycerol stocks of putative mutant colonies were stored at −80° C. […] Spontaneous mutation frequencies were calculated by dividing the number of resistant colonies on a given plate by the starting inoculum plated. A subset of mutants (weighted heavily towards those selected with CMP1) were then evaluated by MIC and sequencing of FKS gene hot spot regions.

C. albicans NRRL Y-477 = assay: microbe, parasite or virus in culture; format: cell-based, Candida albicans; conditions: for MIC: Candida albicans
[2] = tested on: C. glabrata ATCC 90030, ATCC 2001; format: cell-based, Candida glabrata; conditions: for Freq. (replicate mutation frequency): replicate plates 1-3; for Plate concentration: SDA, minimum concentration to cleanly inhibit growth
Experimental: as §1

Candida parapsilosis = assay: Broth microdilution of invasive fungal isolates (CLSI M27-A3/M38-A2); format: cell-based
Candida glabrata = assay: microbe, parasite or virus in culture; format: cell-based
C. parapsilosis CP02 [3] = assay: microbe, parasite or virus in culture; format: cell-based, Candida parapsilosis; conditions: for MIC: Lodderomyces parapsilosis

## CCCCCOc1ccc(-c2ccc(-c3ccc(C(=O)N[C@H]4C[C@@H](O)[C@@H](O)NC(=O)[C@@H]5[C@@H](O)[C@@H](C)CN5C(=O)[C@H]([C@@H](C)O)NC(=O)[C@H]([C@H](O)[C@@H](O)c5ccc(O)cc5)NC(=O)[C@@H]5C[C@@H](O)CN5C(=O)[C@H]([C@@H](C)O)NC4=O)cc3)cc2)cc1 [ANID, anidulafungin] ({pTerphenylCO(4''-OnC5H11)}-[Orn(4R-OH,5R-OH)]T[Hyp][hTyr(3S-OH,4S-OH)]T[Pro(3S-OH,4S-Me)]; lactam 1-C)
Aspergillus fumigatus
  MEC50: 0.008 µg/mL
  Number of isolates inhibited at MEC 0.015 μg/mL: 21
  Number of isolates inhibited at MEC 0.03 μg/mL: 5
  Number of isolates inhibited at MEC ≤0.008 μg/mL: 30
C. parapsilosis CP02 [1]
  Median mutation frequency: <1.04E−08
C. parapsilosis CP02 [1]; SDA, minimum concentration to cleanly inhibit growth
  Plate concentration: 16 µg/mL
C. parapsilosis CP02 [1]; replicate plates 1-3
  Freq. (replicate mutation frequency): <1.04E−08 (2×) and <9.62E−09
C. albicans NRRL Y-477; NRRLY477, 48 h, NRRL Y-477 P20-1, selecting drug ANID, Fks1 HS1 S645Y, 48 h read
  MIC: 4 µg/mL (≈ 3.51 µM)
C. albicans NRRL Y-477; NRRLY477, 48 h, NRRL Y-477 P20-1, selecting drug CMP1, 48 h read
  MIC: 0.125 µg/mL (≈ 0.11 µM)
C. albicans NRRL Y-477; NRRLY477, NRRL Y-477 P20-1, selecting drug CAS
  MIC: 0.015 µg/mL (≈ 0.0132 µM)
C. albicans NRRL Y-477; NRRLY477, read-out: MIC P20, NRRL Y-477, total population after 20 passages with the selecting drug, MIC of selecting drug
  MIC: 4 µg/mL
C. albicans NRRL Y-477; NRRL Y-477, WT to P20
  MIC fold-shift: 256
[2]; ATCC 2001
  Median mutation frequency: 7.02E−08
  Freq. (replicate mutation frequency): 7.02E−08 and 6.71E−08 and 1.09E−07
  Plate concentration: 0.125 µg/mL
[2]; ATCC 90030
  Median mutation frequency: 9.01E−09
  Freq. (replicate mutation frequency): 4.41E−09 and 2.10E−08 and 9.01E−09
  Plate concentration: 0.125 µg/mL
Candida parapsilosis; 92 isolates
  Cumulative % of isolates inhibited at MIC 0.5 μg/mL: (4.3) %
  Cumulative % of isolates inhibited at MIC 1 μg/mL: (34.8) %
  Cumulative % of isolates inhibited at MIC 2 μg/mL: (82.6) %
  Cumulative % of isolates inhibited at MIC 4 μg/mL: (100.0) %
  Number of isolates inhibited at MIC 0.5 μg/mL: 4
  Number of isolates inhibited at MIC 1 μg/mL: 28
  Number of isolates inhibited at MIC 2 μg/mL: 44
  Number of isolates inhibited at MIC 4 μg/mL: 16
Candida parapsilosis; Lodderomyces parapsilosis
  MIC50: 2 µg/mL (≈ 1.75 µM)
  MIC90: 4 µg/mL (≈ 3.51 µM)
Candida glabrata
  Cumulative % of isolates inhibited at MIC 0.015 μg/mL: (1.0) %
  Cumulative % of isolates inhibited at MIC 0.03 μg/mL: (12.0) %
  Cumulative % of isolates inhibited at MIC 0.06 μg/mL: (74.0) %
  Cumulative % of isolates inhibited at MIC 0.12 μg/mL: (95.0) %
  Cumulative % of isolates inhibited at MIC 0.25 μg/mL: (95.0) %
  Cumulative % of isolates inhibited at MIC 0.5 μg/mL: (95.0) %
  Cumulative % of isolates inhibited at MIC 1 μg/mL: (95.0) %
  Cumulative % of isolates inhibited at MIC 2 μg/mL: (98.0) %
  Cumulative % of isolates inhibited at MIC 4 μg/mL: (100.0) %
  Cumulative % of isolates inhibited at MIC ≤0.008 μg/mL: (1.0) %
  Number of isolates inhibited at MIC 0.015 μg/mL: 0
  Number of isolates inhibited at MIC 0.03 μg/mL: 11
  Number of isolates inhibited at MIC 0.06 μg/mL: 62
  Number of isolates inhibited at MIC 0.12 μg/mL: 21
  Number of isolates inhibited at MIC 0.25 μg/mL: 0
  Number of isolates inhibited at MIC 0.5 μg/mL: 0
  Number of isolates inhibited at MIC 1 μg/mL: 0
  Number of isolates inhibited at MIC 2 μg/mL: 3
  Number of isolates inhibited at MIC 4 μg/mL: 2
  Number of isolates inhibited at MIC ≤0.008 μg/mL: 1
Candida glabrata; Nakaseomyces glabratus, read-out: MIC50
  MIC50: 0.06 µg/mL (≈ 0.0526 µM)
Candida glabrata; Nakaseomyces glabratus, read-out: MIC90
  MIC90: 0.12 µg/mL (≈ 0.105 µM)
Candida glabrata; Nakaseomyces glabratus, read-out: MIC according to CLSI method
  MIC: 2 µg/mL (≈ 1.75 µM)
Candida glabrata; Nakaseomyces glabratus, read-out: MIC results
  MIC: 2 to 4 µg/mL (≈ 1.75 to 3.51 µM)
Candida glabrata; listed as ANF
  MIC according to CLSI method: 4 µg/mL (≈ 3.51 µM)
C. parapsilosis CP02 [3]; CP02, WT to P20
  MIC fold-shift: 1
C. parapsilosis CP02 [3]; CP02, CP02 P20-1, selecting drug ANID
  MIC: 4 µg/mL (≈ 3.51 µM)
C. parapsilosis CP02 [3]; CP02, CP02 P20-1, selecting drug CAS
  MIC: 4 µg/mL (≈ 3.51 µM)
C. parapsilosis CP02 [3]; CP02, CP02 P20-1, selecting drug CMP1
  MIC: 8 µg/mL (≈ 7.02 µM)
C. parapsilosis CP02 [3]; CP02, read-out: MIC P20, CP02, total population after 20 passages with the selecting drug, MIC of selecting drug
  MIC: 4 µg/mL
